Experimental data: patent US20250066739A1, “Compositions and Methods for Improving Squamous Epithelial Organoids and Their Production” (The Trustees of Columbia University in the City of New York, priority 2022, published 2025)

Key:
[1] = tested on: EPC1 and EPC2 hTERT-immortalized normal esophageal keratinocytes; assay: Organoid formation by EPC1/EPC2 esophageal 3D organoids; type: cell-based
Description: (§1) In general, 2×10^4 cells were seeded per well to initiate PDO in 24-well plates, which were pre-warmed to 37° C. 1.4×10^5 cells were transferred into a 1.7-mL tube and centrifuged at 500×g (2,300 rpm on Eppendorf 5424R) for 3 min at room temperature to pellet cells. Cells were resuspended in 350 μL ice-cold MATRIGEL® and 50 μL of the suspension was aliquoted into each well of 24-well plate. The 24-well plate was placed in a CO2 incubator at 37° C. for 30 min to allow the MATRIGEL® to solidify.
(§2) 500 μL of a tumor-type specific organoid medium (see Example 11) was added to each well, and the organoid media was changed every 2 to 3 days. Contamination and organoid growth was monitored under a phase-contrast microscope, and organoids were allowed to grow for 10 to 14 days and then passaged or harvested. If spherical structures were observed but grew slowly, the culturing period was extended for another 7 to 14 days.
To evaluate organoid growth, 3D organoid structures were monitored during culturing, and their size was documented by a conventional phase-contrast inverted microscope or high-throughput cell imaging instruments (e.g., Celigo Image Cytometer, Nexcelom Bioscience) with the capacity of automated multi-well rapid imaging and quantitative analysis of organoid size, number, and structure. Organoids were grown in 24-well or 96-well plates as described above, and phase-contrast images were manually acquired. Using ImageJ software, the diameter of at least 5 organoids per well was measured. The Celigo Image Cytometer was also used to acquire phase-contrast images and calculate mean organoid area for all organoids imaged. Growth curves were subsequently calculated by repeating measurements every other day and plotting organoid diameter or area at each time point.
In order to improve the success rate of creating and subculturing organoids through increasing numbers of passages, alterations to existing media were explored and compared to each other and the HC media described in Driehuis et al., Cancer Discov, 2019; 9:852-71. […]

[2] = tested on: neoplastic PDOs; assay: Growth and formation of neoplastic PDOs; type: cell-based, human; conditions: FIG. 2
Description: as §1, §2
To evaluate organoid growth, 3D organoid structures were monitored during culturing, and their size was documented by a conventional phase-contrast inverted microscope or high-throughput cell imaging instruments (e.g., Celigo Image Cytometer, Nexcelom Bioscience) with the capacity of automated multi-well rapid imaging and quantitative analysis of organoid size, number, and structure. […] Using ImageJ software, the diameter of at least 5 organoids per well was measured. […]

Molecule: Cc1cccc(-c2nn(C(=S)Nc3ccccc3)cc2-c2ccnc3ccccc23)n1 [A83-01, reference compound]
- EPC1/EPC2 organoid growth in HOME50 devoid of A83-01 ([1]; medium lacking A83-01 (ΔA), FIG. 5): did not grow

Molecule: EGF: Recombinant human epidermal growth factor (Peprotech, cat. No. AF-100-15) (NSDSECPLSHDGYCLHDGVCMYIEALDKYACNCVVGYIGERCQYRDLKWWELR; Epidermal growth factor; UniProt P01133 971-1023, looked up)
- growth and formation of neoplastic PDOs [2]: may stimulate growth, if not formation
- organoid formation and structure ([1]; effect of EGF concentration, esophageal 3D organoids, FIG. 1): influences organoid formation and structure
- squamous-cell differentiation gradient ([1]; low EGF concentration, FIG. 1): more closely recapitulates a normal squamous-cell differentiation gradient
